Values of other authors as cited in patent US20100055214A1, “METHOD FOR INCREASING BLOOD FLOW TO MAMMALIAN SKELETAL MUSCLE BY ADMINISTERING L-ARGNINE, CRATAEGUS EXTRACT, ARTICHOKE FLAVONOIDS AND GYMNOSTEMMA PENTAPHYLLUM EXTRACT” (H3 FORMULATIONS LTD., priority 2006, published 2010).

Conditions: in vivo

Structure (SMILES): N=C(N)NCCC[C@H](N)C(=O)O [L-arginine]
- NO production: increase
- aerobic exercise capacity: increase aerobic exercise capacity
